Results as given in patent publication US20060039985A1, “Methotrexate compositions” (priority 2004, published 2006).

What was measured:
Format in all cases: physicochemical
[1] = Modulated differential scanning calorimetry (MDSC) study; settings: MDSC heating, 2° C./minute
Method: MDSC studies were performed using a TA 2920 instrument (TA instruments, New Castle, Del.). A sample (5-10 mg) of the powder was filled into an aluminum DSC pan in a glove box, with the relative humidity maintained under 1%, and hermetically sealed using a sample encapsulation press. Helium was used as a purge at 30 cm^3/minute; the Refrigerated Control System (RCS) used helium at a flow rate of 110 cm^3/minute. The MDSC protocol was as follows: equilibrate at 0° C.; modulate ±0.318° C. every 60 seconds; ramp 2° C./minute to 200° C.; isothermal for 5 minutes; ramp 10° C./minute to 0° C.; isothermal for 5 minutes; modul 0.318° C. every 60 seconds; ramp 2° C./minute to 280° C.

[2] = Solubility in REDISPERSE organic solvent (noted in the PLM study)
Method: PLM and hot stage microscopy studies were done using a Nikon (Melville, N.Y.) Optihot-2 polarizing microscope. A Mettler (Columbus, Ohio) Toledo FP82HT hot stage attachment provided the variable temperature analyses from room temperature to 250° C. at 10° C. per minute. Photomicrographs were taken using a Nikon 35 mm attachment using either a 20× or 40× objective. Microscope slides and coverslips were cleaned with methanol prior to use.
Birefringence persisted after quench cooling from […]

[3] = Karl Fisher moisture determination; settings: Karl Fisher potentiometric titration; powder in formamide; 0.6 % RSD
Method: Moisture content in methotrexate powder was measured by Karl Fisher potentiometric titration by direct injection using a Mitsubishi model CA-06 moisturemeter (Mitsubishi Kasei Corporation, Japan). The powder was dissolved/dispersed in 2.5 mL formamide and 1 mL of the solution was injected […]. Titration checks were made by injecting water standards, Mitsubishi (catalogue number MC02020), at several time intervals.

[4] = Dynamic vapor sorption (DVS) study; settings: 25° C.
Method: Water sorption/desorption studies were conducted on a DVS-1000 moisture balance system (Surface Measurement Systems, UK). A sample (15-30 mg) was initially dried at 25° C. until a constant weight was achieved. The relative humidity was increased from 0 to 90% (with 5% relative humidity increments). Each successive increment was initiated when the change in weight at a given relative humidity was smaller than 5 μg over 5 minutes. Once the sample was exposed to 90% relative humidity, the process was reversed from 90% to 0 relative humidity (with 10% relative humidity increments).

Decomposition temperature [1]: 246-250 °C | Solubility in REDISPERSE brand of solvent [2]: insoluble | Moisture content [3]: 7.1% | Relative humidity at which signs of moisture-induced crystallization are observed in DVS time profile [4]: 70 % relative humidity | Hysteresis upon desorption of water ([4]; 90% to 0 relative humidity): no hysteresis | Absorption of water, % of its weight ([4]; at 90% relative humidity): about 13.5% | Storage relative humidity for long term stability of liquid crystalline phase ([4]; suggested by DVS data): below 70 % relative humidity
Compound: CN(Cc1cnc2nc(N)nc(N)c2n1)c1ccc(C(=O)N[C@@H](CCC(=O)O)C(=O)O)cc1 [methotrexate]
Hygroscopicity compared to crystalline material [4]: hygroscopic than the crystalline material
